The results in this text go back to patent publication US12723063B2, “GIPR-agonist compounds” (Eli Lilly and Company, priority 2019, dated 2026).

*1 amine or outer side, *2 acyl side, *3 side chain or, on linkers, in order; H or OH if unused. Where a SMILES comes first, the peptide text is derived from it. Side-chain parts run from the residue outwards. [ ]: non-standard residue; d: D form. The star is where a group is joined. C20 diacid = O=C(O)CCCCCCCCCCCCCCCCCCC(=O)*; C18 diacid = O=C(O)CCCCCCCCCCCCCCCCC(=O)*; αMePhe(2-F) = C[C@](N)(Cc1ccccc1F)C(=O)O; γGlu = O=C(O)[C@H](CCC(=O)[*:2])N[*:1]; AEEA = NCCOCCOCC(=O)O; Aib = CC(C)(N)C(=O)O

Holding throughout (test): cAMP functional assay (HTRF) in HEK293 cells in presence of 0.1% casein
What all share (type): cell-based
(Time-resolved FRET reads energy transfer from a long-lived donor to a nearby acceptor.)

Assay [1] deals with T1, human GLP-1 receptor (GLP-1R) (Homo sapiens, UniProt P43220).
T1 construct: expressed in transfected cells; host or cells: HEK293
T1 sequence (P43220 24-463): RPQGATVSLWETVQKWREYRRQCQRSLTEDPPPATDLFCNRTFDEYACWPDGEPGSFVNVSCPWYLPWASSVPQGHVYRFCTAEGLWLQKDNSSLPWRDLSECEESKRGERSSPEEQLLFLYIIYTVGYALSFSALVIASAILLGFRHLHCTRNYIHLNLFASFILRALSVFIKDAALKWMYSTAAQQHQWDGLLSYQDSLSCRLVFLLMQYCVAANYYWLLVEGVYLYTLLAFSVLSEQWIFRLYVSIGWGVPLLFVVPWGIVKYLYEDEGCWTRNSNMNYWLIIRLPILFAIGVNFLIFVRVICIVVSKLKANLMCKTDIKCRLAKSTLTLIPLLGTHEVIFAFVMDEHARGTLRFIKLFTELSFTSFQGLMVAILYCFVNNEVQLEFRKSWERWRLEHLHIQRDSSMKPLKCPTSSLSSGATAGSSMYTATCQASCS
Conditions: HEK293 cells expressing human GLP-1R, geometric mean, read-out: hGLP1R cAMP Rel EC50 nM (SEM, n).

Assay [2] deals with T2, human glucagon receptor (GcgR) (Homo sapiens, UniProt P47871).
T2 construct: expressed in transfected cells; host or cells: HEK293
T2 sequence (P47871 26-477): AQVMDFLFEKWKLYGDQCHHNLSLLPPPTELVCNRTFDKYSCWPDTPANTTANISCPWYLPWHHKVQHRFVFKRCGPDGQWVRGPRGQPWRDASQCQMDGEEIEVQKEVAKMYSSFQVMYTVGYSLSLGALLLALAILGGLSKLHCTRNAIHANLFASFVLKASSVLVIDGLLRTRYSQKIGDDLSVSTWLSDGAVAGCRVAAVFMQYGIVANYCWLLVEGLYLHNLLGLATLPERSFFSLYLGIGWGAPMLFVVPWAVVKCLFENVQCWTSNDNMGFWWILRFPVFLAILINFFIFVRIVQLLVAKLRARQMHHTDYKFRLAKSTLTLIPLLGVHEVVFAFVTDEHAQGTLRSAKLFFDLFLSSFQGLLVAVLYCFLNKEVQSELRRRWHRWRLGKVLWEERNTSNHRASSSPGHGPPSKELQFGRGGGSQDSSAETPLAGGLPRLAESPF
Conditions: HEK293 cells expressing human GcgR, geometric mean, read-out: hGcgR cAMP Rel EC50 nM (SEM, n).

In assay [3] the target is T3, human glucose-dependent insulinotropic peptide receptor (GIPR) (Homo sapiens, UniProt P48546).
T3 construct: expressed in transfected cells; host or cells: HEK293
T3 sequence (P48546 22-466): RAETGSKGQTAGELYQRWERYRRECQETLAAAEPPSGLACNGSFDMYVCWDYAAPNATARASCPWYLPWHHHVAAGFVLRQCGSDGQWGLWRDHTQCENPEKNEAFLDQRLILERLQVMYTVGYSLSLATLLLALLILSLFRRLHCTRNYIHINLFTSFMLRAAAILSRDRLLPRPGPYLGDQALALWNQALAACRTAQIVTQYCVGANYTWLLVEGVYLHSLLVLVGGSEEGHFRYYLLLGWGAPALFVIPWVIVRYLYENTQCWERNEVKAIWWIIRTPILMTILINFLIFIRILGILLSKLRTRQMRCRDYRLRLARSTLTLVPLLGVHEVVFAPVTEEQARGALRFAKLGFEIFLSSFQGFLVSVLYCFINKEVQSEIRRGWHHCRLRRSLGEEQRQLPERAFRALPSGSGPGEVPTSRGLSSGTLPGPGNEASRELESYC
As to conditions: HEK293 cells expressing human GIPR, geometric mean, read-out: hGIPR cAMP Rel EC50 nM (SEM, n).

By EC50 is commonly meant the midpoint of the concentration-response curve. As for `CC[C@H](C)[C@H](NC(=O)[C@H](CO)NC(=O)[C@H](Cc1ccc(O)cc1)NC(=O)[C@H](CC(=O)O)NC(=O)[C@H](CO)NC(=O)[C@@H](NC(=O)[C@](C)(Cc1ccccc1F)NC(=O)[C@@H](NC(=O)CNC(=O)[C@H](CCC(=O)O)NC(=O)C(C)(C)NC(=O)[C@@H](N)Cc1ccc(O)cc1)[C@@H](C)O)[C@@H](C)CC)C(=O)N[C@@H](C)C(=O)N[C@@H](CC(C)C)C(=O)N[C@@H](CC(=O)O)C(=O)N[C@@H](CCCCN)C(=O)N[C@@H](CCCCNC(=O)COCCOCCNC(=O)COCCOCCNC(=O)CC[C@H](NC(=O)CCCCCCCCCCCCCCCCCCC(=O)O)C(=O)O)C(=O)N[C@@H](Cc1c[nH]cn1)C(=O)N[C@@H](CCC(N)=O)C(=O)NC(C)(C)C(=O)N[C@@H](CCC(=O)O)C(=O)N[C@@H](Cc1ccccc1)C(=O)N[C@H](C(=O)N[C@@H](CC(N)=O)C(=O)N[C@@H](Cc1c[nH]c2ccccc12)C(=O)N[C@@H](CC(C)C)C(=O)N[C@@H](CC(C)C)C(=O)N[C@@H](C)C(=O)NCC(=O)NCC(=O)N1CCC[C@H]1C(=O)N[C@@H](CO)C(=O)N[C@@H](CO)C(=O)NCC(=O)N[C@@H](C)C(=O)N1CCC[C@H]1C(=O)N1CCC[C@H]1C(=O)N1CCC[C@H]1C(=O)N[C@@H](CO)C(N)=O)C(C)C` [Example 26] (H-Y[Aib]EGT[αMePhe(2-F)]ISDYSIALDKK([AEEA-AEEA-γGlu-C20 diacid])HQ[Aib]EFVNWLLAGGPSSGAPPPS-NH2), the EC50 in assay [1] was 5.69 nM; in assay [2], more than 5000 nM; in assay [3], 0.00991 nM.
The matching figures for `CC[C@H](C)[C@H](NC(=O)[C@H](CO)NC(=O)[C@H](Cc1ccc(O)cc1)NC(=O)[C@H](CC(=O)O)NC(=O)[C@H](CO)NC(=O)[C@@H](NC(=O)[C@H](Cc1ccccc1)NC(=O)[C@@H](NC(=O)CNC(=O)[C@H](CCC(=O)O)NC(=O)[C@@H](C)NC(=O)[C@@H](N)Cc1ccc(O)cc1)[C@@H](C)O)[C@@H](C)CC)C(=O)N[C@@H](CC(C)C)C(=O)N[C@@H](CC(C)C)C(=O)N[C@@H](CC(=O)O)C(=O)N[C@@H](CCCCN)C(=O)N[C@@H](CCCCNC(=O)COCCOCCNC(=O)COCCOCCNC(=O)CC[C@H](NC(=O)CCCCCCCCCCCCCCCCC(=O)O)C(=O)O)C(=O)N[C@@H](C)C(=O)N[C@@H](CCC(N)=O)C(=O)NC(C)(C)C(=O)N[C@@H](CCC(=O)O)C(=O)N[C@@H](Cc1ccccc1)C(=O)N[C@H](C(=O)N[C@@H](CCC(N)=O)C(=O)N[C@@H](Cc1c[nH]c2ccccc12)C(=O)N[C@@H](CC(C)C)C(=O)N[C@@H](CC(C)C)C(=O)N[C@@H](C)C(=O)NCC(=O)NCC(=O)N1CCC[C@H]1C(=O)N[C@@H](CO)C(=O)N[C@@H](CO)C(=O)NCC(=O)N[C@@H](C)C(=O)N1CCC[C@H]1C(=O)N1CCC[C@H]1C(=O)N1CCC[C@H]1C(=O)N[C@@H](CO)C(N)=O)C(C)C` [Example 27] (H-Y[dA]EGTFISDYSILLDKK([AEEA-AEEA-γGlu-C18 diacid])AQ[Aib]EFVQWLLAGGPSSGAPPPS-NH2): more than 5000 nM, more than 5000 nM and 0.0132 nM.
The matching figures for `CC[C@H](C)[C@H](NC(=O)[C@H](CO)NC(=O)[C@H](Cc1ccc(O)cc1)NC(=O)[C@H](CC(=O)O)NC(=O)[C@H](CO)NC(=O)[C@@H](NC(=O)[C@H](Cc1ccccc1)NC(=O)[C@@H](NC(=O)CNC(=O)[C@H](CCC(=O)O)NC(=O)[C@@H](C)NC(=O)[C@@H](N)Cc1ccc(O)cc1)[C@@H](C)O)[C@@H](C)CC)C(=O)N[C@@H](CC(C)C)C(=O)N[C@@H](CC(C)C)C(=O)N[C@@H](CC(=O)O)C(=O)N[C@@H](CCCCN)C(=O)N[C@@H](CCCCNC(=O)COCCOCCNC(=O)COCCOCCNC(=O)CC[C@H](NC(=O)CCCCCCCCCCCCCCCCC(=O)O)C(=O)O)C(=O)N[C@@H](C)C(=O)N[C@@H](CCC(N)=O)C(=O)NC(C)(C)C(=O)N[C@@H](CCC(=O)O)C(=O)N[C@@H](Cc1ccccc1)C(=O)N[C@H](C(=O)N[C@@H](CC(N)=O)C(=O)N[C@@H](Cc1c[nH]c2ccccc12)C(=O)N[C@@H](CC(C)C)C(=O)N[C@@H](CC(C)C)C(=O)N[C@@H](CCC(=O)O)C(=O)NCC(=O)NCC(=O)N1CCC[C@H]1C(=O)N[C@@H](CO)C(=O)N[C@@H](CO)C(=O)NCC(=O)N[C@@H](C)C(=O)N1CCC[C@H]1C(=O)N1CCC[C@H]1C(=O)N1CCC[C@H]1C(=O)N[C@@H](CO)C(N)=O)C(C)C` [Example 28] (H-Y[dA]EGTFISDYSILLDKK([AEEA-AEEA-γGlu-C18 diacid])AQ[Aib]EFVNWLLEGGPSSGAPPPS-NH2): more than 5000 nM, more than 5000 nM and 0.0118 nM.
The matching figures for `CC[C@H](C)[C@H](NC(=O)[C@H](CO)NC(=O)[C@H](Cc1ccc(O)cc1)NC(=O)[C@H](CC(=O)O)NC(=O)[C@H](CO)NC(=O)[C@@H](NC(=O)[C@H](Cc1ccccc1)NC(=O)[C@@H](NC(=O)CNC(=O)[C@H](CCC(=O)O)NC(=O)[C@@H](C)NC(=O)[C@@H](N)Cc1ccc(O)cc1)[C@@H](C)O)[C@@H](C)CC)C(=O)N[C@@H](CC(C)C)C(=O)N[C@@H](CC(C)C)C(=O)N[C@@H](CC(=O)O)C(=O)N[C@@H](CCCCN)C(=O)N[C@@H](CCCCNC(=O)COCCOCCNC(=O)COCCOCCNC(=O)CC[C@H](NC(=O)CCCCCCCCCCCCCCCCC(=O)O)C(=O)O)C(=O)N[C@@H](C)C(=O)N[C@@H](CCC(N)=O)C(=O)NC(C)(C)C(=O)N[C@@H](CCC(=O)O)C(=O)N[C@@H](Cc1ccccc1)C(=O)N[C@H](C(=O)N[C@@H](CCC(=O)O)C(=O)N[C@@H](Cc1c[nH]c2ccccc12)C(=O)N[C@@H](CC(C)C)C(=O)N[C@@H](CC(C)C)C(=O)N[C@@H](C)C(=O)NCC(=O)NCC(=O)N1CCC[C@H]1C(=O)N[C@@H](CO)C(=O)N[C@@H](CO)C(=O)NCC(=O)N[C@@H](C)C(=O)N1CCC[C@H]1C(=O)N1CCC[C@H]1C(=O)N1CCC[C@H]1C(=O)N[C@@H](CO)C(N)=O)C(C)C` [Example 29] (H-Y[dA]EGTFISDYSILLDKK([AEEA-AEEA-γGlu-C18 diacid])AQ[Aib]EFVEWLLAGGPSSGAPPPS-NH2): more than 5000 nM, more than 5000 nM and 0.00679 nM.
In the case of `CC[C@H](C)[C@H](NC(=O)[C@H](CO)NC(=O)[C@H](Cc1ccc(O)cc1)NC(=O)[C@H](CC(=O)O)NC(=O)[C@H](CO)NC(=O)[C@@H](NC(=O)[C@](C)(Cc1ccccc1F)NC(=O)[C@@H](NC(=O)CNC(=O)[C@H](CCC(=O)O)NC(=O)[C@H](C)NC(=O)[C@@H](Cc1ccc(O)cc1)NC(C)=O)[C@@H](C)O)[C@@H](C)CC)C(=O)N[C@@H](C)C(=O)N[C@@H](CC(C)C)C(=O)N[C@@H](CC(=O)O)C(=O)N[C@@H](CCCCN)C(=O)N[C@@H](CCCCNC(=O)COCCOCCNC(=O)COCCOCCNC(=O)CC[C@H](NC(=O)CCCCCCCCCCCCCCCCC(=O)O)C(=O)O)C(=O)N[C@@H](Cc1c[nH]cn1)C(=O)N[C@@H](CCC(N)=O)C(=O)NC(C)(C)C(=O)N[C@@H](CCC(=O)O)C(=O)N[C@@H](Cc1ccccc1)C(=O)N[C@H](C(=O)N[C@@H](CC(N)=O)C(=O)N[C@@H](Cc1ccc(O)cc1)C(=O)N[C@@H](CC(C)C)C(=O)N[C@@H](CC(C)C)C(=O)N[C@@H](C)C(=O)NCC(=O)NCC(=O)N1CCC[C@H]1C(=O)N[C@@H](CO)C(=O)N[C@@H](CO)C(=O)NCC(=O)N[C@@H](C)C(=O)N1CCC[C@H]1C(=O)N1CCC[C@H]1C(=O)N1CCC[C@H]1C(=O)N[C@@H](CO)C(N)=O)C(C)C` [Example 30] (Ac-[dY]AEGT[αMePhe(2-F)]ISDYSIALDKK([AEEA-AEEA-γGlu-C18 diacid])HQ[Aib]EFVNYLLAGGPSSGAPPPS-NH2), the EC50 in assay [1] was more than 5000 nM; in assay [2] it was more than 5000 nM; in assay [3], 0.00572 nM.
